According to patent US20250101032A1, “EXATECAN DERIVATIVES AND ANTIBODY-DRUG CONJUGATES THEREOF” (priority 2021, published 2025):
Values after ≈ are worked out from the molar mass of the structure shown.

How the values were obtained:
[1] = physchem; conditions: 25 °C, pH 7.4, aqueous buffer, kinetic from dmso stock
Experimental: In-vitro kinetic solubilities of the compounds in PBS pH 7.4 buffer at 25° C. were determined by diluting compounds from 100% dimethyl sulfoxide (DMSO) into PBS buffer and measuring absorbance at 490, 590 and 650 nm. Stock concentrations in 100% DMSO were provided at 1-6 mM in 100% DMSO. Kinetic solubilities were determined by diluting test compounds from 100% DMSO into PBS pH 7.4 buffer, as duplicate, 10 point 2-fold serial dilution starting at 100× dilution of stock DMS solution into PBS buffer in a clear, flat bottom polystyrene assay plates. Total assay volume was 200 microliters. Solutions were mixed by plate shaking, incubated for 30 m at 25° C., and absorbance was read at 490, 590 and 650 nm. […] in PBS buffer was used as a blank. For each test compound, average optical density (GD) at each concentration was determined by averaging the blank corrected sum of absorption at 490 nm, 590 nm and 650 nm, over duplicate measurements. Turbidity threshold optical density value was set as a sum of mean plus two standard deviations of the mean of absorbances at 490, 590 and 650 nm for 1% (v/v) DMSO in PBS pH 7.4 buffer. Highest soluble concentration (micromolar) corresponded to the highest concentration at which average optical density was below optical density value set for turbidity threshold (Table 4). Amiodarone and propranolol were used as low and high solubility controls respectively.

[2] = system: SKBR3; test: In vitro cytotoxicity assay (CellTiter-Glo), SKBR3; format: cell-based, Human; conditions: Homo sapiens, SK-BR-3, 144 h, read-out: Cytotoxicity IC50
Experimental: (§1) Human tumor cell lines, SK-BR-3, NCI-H292, HT-29, MCF-7, NCI-N87, and FaDu were obtained from ATCC. NCI-H292, HT-29, MCF-7, and NCI-N87 cells were cultured in RPMI-1640 media (Gibco, Life Technologies) supplemented with 10% v/v heat inactivated FBS (Corning), FaDu cells were maintained in DMEM media (Gibco, Life Technologies) supplemented with 10% v/v heat inactivated FBS (Corning). SK-BR-3 cells were maintained in McCoys 5A medium (Gibco, Life Technologies) supplemented with 10% […] heat inactivated FBS (Corning) at 37° C. in a humidified incubator containing 5% CO2.
(§2) Lyophilized compounds were dissolved in 100% dry DMSO, aliquots frozen and stored at −80° C. Concentration and purity of compound stock solutions in DMSO were determined by RP-HPLC Agilent 1100 platform with 1200 DAD and SofTA ELSD detectors, and the Agilent 6150 MS system (UV/VIS, ELSD purity and MS compound identity confirmation). Shimadzu 3.0 mm×30 mm XR ODS 2.2 μm column was run at 50° C., 1.5 mL/min. Solvent A: 0.1% Formic acid in water, Solvent B: 0.08% Formic acid in methanol-Gradient: 5%-100% B in 3.0 min, 100% solvent B for 0.3 min. Concentration of compounds in 100% DMSO determined by ELS ranged from 1-6 mM.
(§3) Cells were plated in 96-well white flat-bottomed plates (Corning) at 2.0×10^3 cells per well in 100 μL culture medium. After incubation for 24 hours, test compounds were added at a range of concentrations as ten point serial dilution as duplicates or triplicates. Following further incubation for 6 days 37° C., 5% CO2, cell viability was assessed with the use of a CellTiter-Glo Luminescent Cell Viability Assay (Promega). Luminescence was measured using the GloMax instrument (Promega). […] For a subset of payloads, each treatment was independently repeated two to eight times, and IC50 values were averaged. […] Standard deviation (stdev) is shown as (N/A) for treatment performed once.

[3] = system: HT29; test: In vitro cytotoxicity assay (CellTiter-Glo), HT29; format: cell-based, Human; conditions: Homo sapiens, HT-29, 144 h, read-out: Cytotoxicity IC50
Experimental: as §1, §2, §3

[4] = system: NCI-H292; test: In vitro cytotoxicity assay (CellTiter-Glo), NCI-H292; format: cell-based, Human; conditions: Homo sapiens, NCI-H292, 144 h, read-out: Cytotoxicity IC50
Experimental: as §1, §2, §3

[5] = system: MCF7; test: In vitro cytotoxicity assay (CellTiter-Glo), MCF7; format: cell-based, Human; conditions: Homo sapiens, MCF7, 144 h, read-out: Cytotoxicity IC50
Experimental: as §1, §2, §3

[6] = system: NCI-N87; test: In vitro cytotoxicity assay (CellTiter-Glo), NCI-N87; format: cell-based, Human; conditions: Homo sapiens, NCI-N87, 144 h, read-out: Cytotoxicity IC50
Experimental: as §1, §2, §3

[7] = system: FaDu; test: In vitro cytotoxicity assay (CellTiter-Glo), FaDu; format: cell-based, Human; conditions: Homo sapiens, FaDu, 144 h, read-out: Cytotoxicity IC50
Experimental: as §1, §2, §3

[8] = system: SKOV3; test: In vitro cytotoxicity assay (CellTiter-Glo), SKOV3; format: cell-based; conditions: Homo sapiens, SK-OV-3, 144 h, read-out: Cytotoxicity IC50
Experimental: (§4) Lyophilized compounds were dissolved in 100% dry DMSO, aliquots frozen and stored at −80° C. […] Shimadzu 3.0 mm×30 mm XR ODS 2.2 μm column was run at 50° C., 1.5 mL/min. Solvent A: 0.1% Formic acid in water, Solvent B: 0.08% Formic acid in methanol-Gradient: 5%-100% B in 3.0 min, 100% solvent B for 0.3 min.
as §3

[9] = system: BXPC3; test: In vitro cytotoxicity assay (CellTiter-Glo), BXPC3; format: cell-based; conditions: Homo sapiens, BXPC-3, 144 h, read-out: Cytotoxicity IC50
Experimental: as §4, §3

Row | Compound | solubility at 30 min [1] [µM] | IC50 [2] [nM] | IC50 [3] [nM] | IC50 [4] [nM] | IC50 [5] [nM] | IC50 [6] [nM] | IC50 [7] [nM] | IC50 [8] [nM] | IC50 [9] [nM]
1 | CC[C@@]1(O)C(=O)OCc2c1cc1n(c2=O)Cc2c-1nc1cc(F)c(C)c3c1c2[C@@H](NCc1cnnn1CCO)CC3 [Compound 109] | 17 (≈ 9.53 µg/mL) | 7.3 | 56.8 | 26.1 | 12.8 | 29.3 | 8.3 | 32.4 | 10.8
2 | CC[C@@]1(O)C(=O)OCc2c1cc1n(c2=O)Cc2c-1nc1cc(F)c(C)c3c1c2[C@@H](NS(=O)(=O)CCCO)CC3 [Compound 110] | 18 (≈ 10 µg/mL) | 7.6 | 28.6 | 18.8 | 22.4 | 18.2 | 15.6 | 59.2 | 15.7
3 | CC[C@@]1(O)C(=O)OCc2c1cc1n(c2=O)Cc2c-1nc1cc(F)c(C)c3c1c2[C@@H](Nc1c(NCC(O)CO)c(=O)c1=O)CC3 (stereo partly drawn) [Compound 115] | 23 (≈ 13.9 µg/mL) | 62.8 | 155 | 128 | 47 | 127 | 56.1 | 174 | 55
4 | CC[C@@]1(O)C(=O)OCc2c1cc1n(c2=O)Cc2c-1nc1cc(F)c(C)c3c1c2[C@@H](NC(=O)CCC(=O)NCC(O)CO)CC3 (stereo partly drawn) [Compound 117] | 30 (≈ 18.3 µg/mL) | 474 | 2910 | 888 | 342 | 1450 | 234 | 1090 | 412
5 | CC[C@@]1(O)C(=O)OCc2c1cc1n(c2=O)Cc2c-1nc1cc(F)c(C)c3c1c2[C@@H](NC(=O)NCC(O)CO)CC3 (stereo partly drawn) [Compound 118] | 30 (≈ 16.6 µg/mL) | 23.9 | 291 | 88.4 | 45.9 | 96.6 | 17.5 | 96.7 | 52.7
6 | CC[C@@]1(O)C(=O)OCc2c1cc1n(c2=O)Cc2c-1nc1cc(F)c(C)c3c1c2[C@@H](Nc1c(O)c(=O)c1=O)CC3 [Compound 129] | 22 (≈ 11.7 µg/mL) | 169 | 282 | 208 | 79.3 | 300 | 92.9 | 265 | 134
7 | CC[C@@]1(O)C(=O)OCc2c1cc1n(c2=O)Cc2c-1nc1cc(F)c(C)c3c1c2[C@@H](N(CCO)C(C)=O)CC3 [Compound 136] | 23 (≈ 12 µg/mL) | 23.7 | 36.8 | 16.3 | 18.4 | 40.2 | 5.2 | 98.4 | 24.9
8 | CC[C@@]1(O)C(=O)OCc2c1cc1n(c2=O)Cc2c-1nc1cc(F)c(C)c3c1c2[C@@H](N)CC3 [Exatecan, exatecan] | 24 (≈ 10.5 µg/mL) | 0.5 | 1 | 1.3 | 0.4 | 1.2 | 0.6 | 0.7 | 0.3
